Earlier results, collected in patent US9822391B2, “Methods for monitoring methotrexate therapy” (priority 2010, dated 2017).

What was measured:
[1] = approximately 5-10% of individuals who do not metabolize MTX effectively; within the first few hours following once weekly administration; Chladek et al., 1998
[2] = molecular target: AICAR transformylase (Homo sapiens, UniProt P31939); settings: relative to MTX; Allegra et al., 1987
Sequence of AICAR transformylase (P31939 whole entry, species assumed): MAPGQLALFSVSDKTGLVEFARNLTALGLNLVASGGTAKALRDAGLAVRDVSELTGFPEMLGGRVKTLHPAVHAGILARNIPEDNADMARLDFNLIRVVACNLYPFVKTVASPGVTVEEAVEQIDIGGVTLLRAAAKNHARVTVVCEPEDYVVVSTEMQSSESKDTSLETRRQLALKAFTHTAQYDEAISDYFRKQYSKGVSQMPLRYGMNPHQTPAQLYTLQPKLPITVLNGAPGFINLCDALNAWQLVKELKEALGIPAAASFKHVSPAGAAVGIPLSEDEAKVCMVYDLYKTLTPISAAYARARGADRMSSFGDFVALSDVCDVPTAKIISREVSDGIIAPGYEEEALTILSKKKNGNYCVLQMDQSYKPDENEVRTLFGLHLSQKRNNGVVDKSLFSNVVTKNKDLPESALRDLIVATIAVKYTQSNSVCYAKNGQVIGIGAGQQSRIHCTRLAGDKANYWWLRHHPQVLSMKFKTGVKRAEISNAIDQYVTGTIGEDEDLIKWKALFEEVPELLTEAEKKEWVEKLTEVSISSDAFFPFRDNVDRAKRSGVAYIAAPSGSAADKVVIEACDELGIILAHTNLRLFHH

| Structure (SMILES) | excretion of the drug in urine [1] | fold more potent than MTX itself against AICAR transformylase [2] [fold] |
| --- | --- | --- |
| CN(Cc1cnc2nc(N)nc(N)c2n1)c1ccc(C(=O)N[C@@H](CCC(=O)O)C(=O)O)cc1 [MTX, Methotrexate] | virtually the totality of the drug excreted unchanged in the urine |  |
| CN(Cc1cnc2nc(N)nc(N)c2n1)c1ccc(C(=O)NC(CCC(=O)NC(CCC(=O)NC(CCC(=O)NC(CCC(=O)NC(CCC(=O)O)C(=O)O)C(=O)O)C(=O)O)C(=O)O)C(=O)O)cc1 (centres unmarked) [pentaglutamylated form of MTX] |  | 2500 |
